Among the test systems are MALME-3M melanoma; HL-60(TB) leukemia; RXF 393 renal; KM12 colon; ACHN renal; HOP-62 NSCLC; HCT-15 colon; SN12C renal; SNB-75 CNS.
Common to all, as to assay: growth of human tumour cells (NCI), 48 h

The structures appear in SMILES notation.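 Compound exposure: 48 hours, 5 concentrations, 96-well plates. GI50: concentration for 50% inhibition of growth. At the TGI there is no net growth.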

`C=C(C)[C@H](O)C(O)CC(C)[C@@H]1CCC23CC12CCC1[C@@]2(C)CCC(OC(C)=O)C(C)(C)C2CC(OC2OC(COC(C)=O)C(O)C(O)C2O)[C@]13C` (stereo partly specified): the TGI was 14.7 µM in the test on MALME-3M melanoma; 5.08 µM with HL-60(TB) leukemia; 8.49 µM in the test on RXF 393 renal; 11.3 µM with KM12 colon; 12.6 µM in the test with ACHN renal; 13.2 µM in the test on HOP-62 NSCLC. The TGI stood at 10.4 µM with HCT-15 colon, 13 µM with SN12C renal and 9.03 µM in the test with SNB-75 CNS.

With `CS/C(c1ccccc1)=[N+](/C)[O-]`, the TGI in the test on MALME-3M melanoma, with HL-60(TB) leukemia, in the test on RXF 393 renal, in the test with KM12 colon, with ACHN renal and in the test on HOP-62 NSCLC was > 100 µM in each case. Further, the values for the TGI with HCT-15 colon, in the test with SN12C renal and in the test on SNB-75 CNS were 41.1 µM, > 100 µM and > 100 µM, respectively.

As for `C[CH2][Sn]([CH2]C)([O]C(=O)c1cccc(F)c1)[O][Sn]([CH2]C)([CH2]C)[O]C(=O)c1cccc(F)c1`, the GI50 in the test on MALME-3M melanoma was 14.1 µM; in the test on HL-60(TB) leukemia, 26.6 µM; in the test with RXF 393 renal, 14.5 µM; in the test on KM12 colon, > 100 µM; in the test with ACHN renal, 18.7 µM; with HOP-62 NSCLC it was 37.3 µM. Further, the results for the GI50 with HCT-15 colon, with SN12C renal and in the test on SNB-75 CNS were 21 µM, 17 µM and 16.9 µM, respectively. The TGI in the test with MALME-3M melanoma was 27.3 µM; in the test on HL-60(TB) leukemia, 96.5 µM; in the test with RXF 393 renal, 27.7 µM; with KM12 colon, > 100 µM; in the test with ACHN renal it was 32.7 µM; with HOP-62 NSCLC, > 100 µM. The TGI came to 43.3 µM in the test on HCT-15 colon, 31.3 µM in the test on SN12C renal and 31.9 µM in the test with SNB-75 CNS.

`C[CH2][Sn]([Cl])([Cl])[CH2]C`: the GI50 in the test on MALME-3M melanoma was 15.8 µM; in the test on HL-60(TB) leukemia, > 75.9 µM; with RXF 393 renal, 17.5 µM; in the test on KM12 colon, > 100 µM; in the test with ACHN renal, 24.1 µM; with HOP-62 NSCLC it was > 100 µM. The figures for the GI50 in the test with HCT-15 colon, with SN12C renal and with SNB-75 CNS were > 43.2 µM, 35.1 µM and 24.9 µM, respectively. The TGI in the test on MALME-3M melanoma was 30.3 µM; with HL-60(TB) leukemia, > 100 µM; in the test with RXF 393 renal it was 32.7 µM; in the test with KM12 colon, > 100 µM; in the test on ACHN renal, 58.5 µM; in the test with HOP-62 NSCLC, > 100 µM. Also, the results for the TGI in the test on HCT-15 colon, in the test on SN12C renal and in the test on SNB-75 CNS were > 60.9 µM, > 78.6 µM and > 61.7 µM, respectively.

In the case of `CCOc1ccccc1NC(=O)C1=C(C)NC(C)=C(C(=O)Nc2ccccc2OCC)C1c1ccc(NC(C)=O)cc1`, the TGI with MALME-3M melanoma was > 100 µM; in the test on HL-60(TB) leukemia, > 100 µM; in the test on RXF 393 renal it was > 100 µM; with KM12 colon it was > 100 µM; in the test with ACHN renal, > 100 µM; with HOP-62 NSCLC, 49 µM. The TGI with SN12C renal was > 100 µM; in the test on SNB-75 CNS, 65.6 µM.

As to `COc1cc([C@@H]2OC(=O)C3C2C(=O)O[C@H]3c2cc(OC)c(OC)c(OC)c2)cc(OC)c1OC` (stereo partly specified), the TGI in the test with HL-60(TB) leukemia, in the test on RXF 393 renal, in the test on KM12 colon, in the test on ACHN renal, in the test on HOP-62 NSCLC and with HCT-15 colon was > 100 µM throughout. The TGI in the test on SN12C renal and with SNB-75 CNS was > 100 µM each time.

Take `C=CCN=C1NC(=O)C(CC(=O)Nc2ccc(C)cc2)S1` (stereo unspecified): the TGI with MALME-3M melanoma, in the test on HL-60(TB) leukemia, in the test on RXF 393 renal, in the test on KM12 colon, with ACHN renal and in the test with HOP-62 NSCLC was > 100 µM each time. Further, the TGI with HCT-15 colon, with SN12C renal and in the test with SNB-75 CNS was > 100 µM throughout.

Regarding `COC(=O)C(CC(=O)Nc1ccc(Cl)c(Cl)c1)C(=O)C(=O)NC1C2CC3CC(C2)CC1C3` (stereo unspecified), the TGI in the test with MALME-3M melanoma, in the test on HL-60(TB) leukemia, with RXF 393 renal, with KM12 colon, with ACHN renal and with HOP-62 NSCLC was > 100 µM in each case. In addition, the TGI with HCT-15 colon and with SN12C renal was > 100 µM in each case.

Consider `N#CC(C#N)=C1SCC(=O)CS1`, for which the TGI in the test on MALME-3M melanoma, with HL-60(TB) leukemia, in the test on RXF 393 renal, in the test on KM12 colon, in the test on HOP-62 NSCLC and in the test on HCT-15 colon was > 100 µM each time. Further, the TGI in the test on SN12C renal and in the test on SNB-75 CNS was > 100 µM in each case.

As for `NC(CCSC(F)F)C(=O)O` (stereo unspecified), the TGI with MALME-3M melanoma, in the test with RXF 393 renal, in the test on KM12 colon, in the test on ACHN renal, with HOP-62 NSCLC and in the test with SN12C renal was > 100 µM throughout. Besides, in the test on SNB-75 CNS, the TGI is > 100 µM.

In the case of `O=C(/C=C1/NC(=O)CS1)Nc1ccccc1`, the TGI in the test on MALME-3M melanoma, in the test on HL-60(TB) leukemia, with RXF 393 renal, with KM12 colon, in the test on HOP-62 NSCLC and with SN12C renal was > 100 µM each time. Also, the TGI with SNB-75 CNS is > 100 µM.

Turning to `COc1cc2cccc(NC(=O)c3cc(OC)c(OC)c(OC)c3Br)c2cc1OC`, the TGI in the test with MALME-3M melanoma is 49.8 µM; with KM12 colon, 27.5 µM; in the test on ACHN renal, 75.5 µM; in the test with HOP-62 NSCLC, 42.3 µM; with SN12C renal it was > 100 µM; in the test on SNB-75 CNS, 74.8 µM.

Consider `Cc1ccc(N2C(=O)/C(=C/c3ccc(N(CCC#N)CCC#N)cc3C)N=C2c2cc([N+](=O)[O-])ccc2Cl)cc1`, for which the TGI in the test on MALME-3M melanoma, in the test with HL-60(TB) leukemia, in the test on KM12 colon, in the test on ACHN renal, in the test with HOP-62 NSCLC and in the test with HCT-15 colon was > 100 µM throughout. Also, the TGI in the test on SN12C renal and in the test with SNB-75 CNS was > 100 µM in each case.

Turning to `O=C1C[C@H]2CC3(CC[C@H]2CN1)OCCO3`, the TGI in the test with MALME-3M melanoma, with HL-60(TB) leukemia, in the test with RXF 393 renal, with KM12 colon, in the test on HOP-62 NSCLC and in the test on HCT-15 colon was > 100 µM throughout. The TGI in the test on SN12C renal and in the test on SNB-75 CNS was > 100 µM throughout.

For the origin of these results see PubChem BioAssay (NCI).
